Results published in article PMC10033419, “Blocking NS3–NS4B interaction inhibits dengue virus in non-human primates” (Nature, 2023).

Tested on: DENV-2 RL strain
Experiment: Survival study, lethal DENV challenge with 4G2 antibody
Format: in vivo, AG129 mice

**Q.** How did the survival (0.6–20 mg per kg per day, b.i.d., vehicle 0%) turn out when `COc1cc(N[C@H](C(=O)c2c[nH]c3ccc(OC(F)(F)F)cc23)c2ccc(Cl)cc2OC)cc(S(C)(=O)=O)c1` [JNJ-1802] was run?
**A.** The survival was ≥ 80%.

**Q.** What about the “% Survival” value (802R_0.3, BID, d p.i. 0) of the same molecule?
**A.** The value was 100%.

**Q.** And the “% Survival” value (802R_0.3, BID, d p.i. 1)?
**A.** Its value is 100%.

**Q.** What about the “% Survival” value (802R_0.3, BID, d p.i. 4) of the same molecule?
**A.** The value was 100%.

**Q.** What about the “% Survival” value (802R_0.3, BID, d p.i. 5) of the same molecule?
**A.** The value was 100%.

**Q.** What about the “% Survival” value (802R_0.3, BID, d p.i. 6) of the same molecule?
**A.** The value was 100%.

**Q.** What about the “% Survival” value (802R_0.3, BID, d p.i. 7) of the same molecule?
**A.** The value was 100%.

**Q.** And the “% Survival” value (802R_0.3, BID, d p.i. 8)?
**A.** The value was 100%.

**Q.** What about the “% Survival” value (802R_0.3, BID, d p.i. 9) of the same molecule?
**A.** Its value is 100%.

**Q.** What about the “% Survival” value (802R_0.3, BID, d p.i. 10) of the same molecule?
**A.** The value was 100%.

**Q.** And the “% Survival” value (802R_0.3, BID, d p.i. 11)?
**A.** Its value is 100%.

**Q.** And the “% Survival” value (802R_0.3, BID, d p.i. 12)?
**A.** Its value is 100%.

**Q.** What about the “% Survival” value (802R_0.3, BID, d p.i. 13) of the same molecule?
**A.** Its value is 100%.

**Q.** What about the “% Survival” value (802R_0.3, BID, d p.i. 14) of the same molecule?
**A.** Its value is 100%.

**Q.** And the “% Survival” value (802R_0.3, BID, d p.i. 15)?
**A.** Its value is 100%.

**Q.** What about the “% Survival” value (802R_0.3, BID, d p.i. 16) of the same molecule?
**A.** The value was 100%.

**Q.** And the “% Survival” value (802R_0.3, BID, d p.i. 17)?
**A.** The value was 90%.

**Q.** And the “% Survival” value (802R_0.3, BID, d p.i. 18)?
**A.** Its value is 90%.

**Q.** What about the “% Survival” value (802R_0.3, BID, d p.i. 19) of the same molecule?
**A.** Its value is 90%.

**Q.** And the “% Survival” value (802R_0.3, BID, d p.i. 20)?
**A.** Its value is 90%.

**Q.** And the “% Survival” value (802R_0.3, BID, d p.i. 21)?
**A.** The value was 90%.

**Q.** What about the “% Survival” value (802R_0.3, BID, d p.i. 22) of the same molecule?
**A.** The value was 90%.

**Q.** What about the “% Survival” value (802R_0.3, BID, d p.i. 23) of the same molecule?
**A.** Its value is 90%.

**Q.** What about the “% Survival” value (802R_0.3, BID, d p.i. 24) of the same molecule?
**A.** The value was 90%.

**Q.** And the “% Survival” value (802R_0.3, BID, d p.i. 25 = end of study)?
**A.** Its value is 90%.

**Q.** What about the “% Survival” value (802R_1, BID, d p.i. 0) of the same molecule?
**A.** Its value is 100%.

**Q.** And the “% Survival” value (802R_1, BID, d p.i. 1)?
**A.** Its value is 100%.

**Q.** And the “% Survival” value (802R_1, BID, d p.i. 2)?
**A.** Its value is 100%.

**Q.** And the “% Survival” value (802R_1, BID, d p.i. 4)?
**A.** The value was 100%.

**Q.** What about the “% Survival” value (802R_1, BID, d p.i. 5) of the same molecule?
**A.** The value was 100%.

**Q.** What about the “% Survival” value (802R_1, BID, d p.i. 6) of the same molecule?
**A.** Its value is 100%.

**Q.** What about the “% Survival” value (802R_1, BID, d p.i. 7) of the same molecule?
**A.** The value was 100%.

**Q.** What about the “% Survival” value (802R_1, BID, d p.i. 8) of the same molecule?
**A.** Its value is 100%.

**Q.** And the “% Survival” value (802R_1, BID, d p.i. 9)?
**A.** The value was 100%.

**Q.** What about the “% Survival” value (802R_1, BID, d p.i. 10) of the same molecule?
**A.** The value was 100%.

**Q.** What about the “% Survival” value (802R_1, BID, d p.i. 11) of the same molecule?
**A.** The value was 100%.

**Q.** And the “% Survival” value (802R_1, BID, d p.i. 12)?
**A.** The value was 100%.

**Q.** And the “% Survival” value (802R_1, BID, d p.i. 13)?
**A.** The value was 100%.

**Q.** What about the “% Survival” value (802R_1, BID, d p.i. 14) of the same molecule?
**A.** Its value is 100%.

**Q.** What about the “% Survival” value (802R_1, BID, d p.i. 15) of the same molecule?
**A.** Its value is 100%.

**Q.** What about the “% Survival” value (802R_1, BID, d p.i. 16) of the same molecule?
**A.** Its value is 100%.

**Q.** And the “% Survival” value (802R_1, BID, d p.i. 17)?
**A.** Its value is 100%.

**Q.** What about the “% Survival” value (802R_1, BID, d p.i. 18) of the same molecule?
**A.** The value was 100%.

**Q.** And the “% Survival” value (802R_1, BID, d p.i. 19)?
**A.** Its value is 100%.

**Q.** What about the “% Survival” value (802R_1, BID, d p.i. 20) of the same molecule?
**A.** Its value is 100%.

**Q.** What about the “% Survival” value (802R_1, BID, d p.i. 21) of the same molecule?
**A.** Its value is 100%.

**Q.** And the “% Survival” value (802R_1, BID, d p.i. 22)?
**A.** Its value is 100%.

**Q.** What about the “% Survival” value (802R_1, BID, d p.i. 23) of the same molecule?
**A.** Its value is 100%.

**Q.** What about the “% Survival” value (802R_1, BID, d p.i. 24) of the same molecule?
**A.** Its value is 100%.

**Q.** And the “% Survival” value (802R_1, BID, d p.i. 25 = end of study)?
**A.** Its value is 100%.

**Q.** What about the “% Survival” value (802R_3, BID, d p.i. 0) of the same molecule?
**A.** The value was 100%.

**Q.** What about the “% Survival” value (802R_3, BID, d p.i. 1) of the same molecule?
**A.** Its value is 100%.

**Q.** What about the “% Survival” value (802R_3, BID, d p.i. 2) of the same molecule?
**A.** Its value is 100%.

**Q.** What about the “% Survival” value (802R_3, BID, d p.i. 4) of the same molecule?
**A.** Its value is 100%.

**Q.** And the “% Survival” value (802R_3, BID, d p.i. 5)?
**A.** Its value is 100%.

**Q.** And the “% Survival” value (802R_3, BID, d p.i. 6)?
**A.** The value was 100%.

**Q.** What about the “% Survival” value (802R_3, BID, d p.i. 7) of the same molecule?
**A.** Its value is 100%.

**Q.** And the “% Survival” value (802R_3, BID, d p.i. 8)?
**A.** Its value is 100%.

**Q.** And the “% Survival” value (802R_3, BID, d p.i. 9)?
**A.** Its value is 100%.

**Q.** And the “% Survival” value (802R_3, BID, d p.i. 10)?
**A.** The value was 100%.

**Q.** What about the “% Survival” value (802R_3, BID, d p.i. 11) of the same molecule?
**A.** Its value is 100%.

**Q.** What about the “% Survival” value (802R_3, BID, d p.i. 12) of the same molecule?
**A.** The value was 100%.

**Q.** What about the “% Survival” value (802R_3, BID, d p.i. 13) of the same molecule?
**A.** Its value is 100%.
